The values below come from patent publication US6407142B1, “Use of stilbene derivatives substituted in position 3 as deodorant active agents in cosmetic compositions” (L'Oreal S.A., priority 1999, dated 2002).

One may read the MIC as the lowest concentration found to suppress growth.

For series [1], the system named is Staphylococcus aureus. In words: Microbiostatic activity (MIC) by dilutions in agar medium. Format: cell-based. As for the experimental part: (§1) Each of the 3 compounds was presented in the form of an ethanolic solution. 100 μl of the ethanolic solution were added to 1.9 ml of agar culture heated beyond the melting point to 45° C. (medium chosen as a function of the nutrient requirements of the test strain). After stirring with a Vortex machine, successive dilutions, in geometrical progression by a factor of 2, of the solution obtained were carried out using agar culture medium heated beyond its melting point to 45° C. 1 ml of each dilution was introduced into the wells of a microplate (flask, 24 wells). Four μl of microbial suspension were placed at the surface of the agar medium. Two control wells were also prepared: 100 μl H2O+1.9 ml of culture medium (growth control), […] ethanol+1.9 ml of culture medium (control of non-toxicity of the ethanol diluted to 1/20).
(§2) After incubation under conditions (temperature, atmosphere and duration) dependent on the test strain, the minimum inhibitory concentration (MIC) was given by the lowest concentration of product which inhibited the microbial growth. The results, shown below, are expressed in μg/ml.
(§3) For the control cupules (H2O or ethanol), the observation of microbial growth made it possible to exclude the presence of a placebo effect.

Series [2] has as its system Staphylococcus epidermis. The description is as above. Format: cell-based. As for the experimental part: as §1, §2, §3
Series [3] concerns Aspergillus niger. The series is described as above. Format: cell-based. The procedure: as §1, §2, §3
Series [4] has as its system Pityrosporum ovale. The series is described as above. The series is classed as cell-based. Conditions: Malassezia furfur. As for the experimental part:
as §1, §2, §3

Series [5] deals with Corynebacterium xerosis. The series is described as above. Conditions: for MIC: Corynebacterium xerosis. Format: cell-based. The procedure:
as §1, §2, §3

Series [6] relates to Propionibacterium acnes. The series is described as above. Format: cell-based. Conditions: Cutibacterium acnes. As for the experimental part:
as §1, §2, §3

Series [7] is described as follows: In vitro test of inhibition of the evolution of odors on natural sweat (olfactory evaluation by jury of experts). On the set-up: species or system human. Conditions: for average % of reduction in the unpleasantness of the odor (T18 h, T24 h) / average % of reduction in the odor intensity (T18 h, T24 h): 37° C.; for average % of reduction in the unpleasantness of the odor (T18 h, T24 h): hedonistic grade relative to control sweat; for average % of reduction in the odor intensity (T18 h, T24 h): relative to control sweat without deodorant agent; for deodorant efficacy (reduction in the intensity and unpleasantness of the odor), in words: natural sweat, for at least 24 h. The procedure:
A test of inhibition of the evolution of odors was carried out on natural sweat. This test is carried out by adding the deodorant agent to fresh sweat, and then in carrying out an olfactory evaluation by means of a jury of experts after incubation at 37° C. for 18 hours and 24 hours. Thus, underarm sweat was collected in a sauna from several human models and combined to form a sample of sweat. In order to obtain the characteristic nauseating odor of sweat, before introducing the active substance, this sample of sweat was incubated for 18 hours at a temperature of 37° C. […] The active substance was then introduced into each of the flasks to be tested.
1) After incubation for 18 hours, the odor of each flask was evaluated.
The odor was evaluated on the basis of 2 criteria:
(a)—overall intensity (grading from 0 to 4):
(b)—the hedonistic assessment (grading from 0 to 6):
2) The flasks were reincubated in an oven at 37° C. for 6 h, the total desired incubation time being 24 h. Evaluation of the odor of each flask was then repeated as before.

The conditions of series [8]: cited from earlier work.
Where [9] appears, read: Staphylococcus epidermis, agar dilution, read-out: MIC.
The mark [10] stands for this setting: Pityrosporum ovale, agar dilution, read-out: MIC.
Setting [11] is: Propionibacterium acnes, agar dilution, read-out: MIC.

Values after ≈ are worked out from the molar mass of the structure shown. Read-outs that look alike come from different tables or passages of the source.

Regarding `Oc1ccc(/C=C/c2cc(O)cc(O)c2)cc1` [Resveratrol, 3,5,4′-stilbene], the MIC in series [1] (agar dilution, read-out: MIC) was 72 µg/mL (≈ 315 µM); in series [2] (setting [9]), 72 µg/mL (≈ 315 µM); in series [3] (agar dilution, read-out: MIC), above 115 µg/mL; in series [4] (setting [10]), above 115 µg/mL; in series [5] (agar dilution, read-out: MIC), 14 µg/mL (≈ 61.3 µM); in series [6] (setting [11]), 29 µg/mL (≈ 127 µM).

As to `Oc1cc(O)cc(C=Cc2ccccc2)c1` [Pinosylvine, 3,5-dihydroxystilbene], the MIC in series [1] (agar dilution, read-out: MIC) was 200 µg/mL (≈ 942 µM); in series [2] (setting [9]), 400 µg/mL (≈ 1880 µM); in series [3] (agar dilution, read-out: MIC), 400 µg/mL (≈ 1880 µM); in series [4] (setting [10]), above 400 µg/mL; in series [5] (agar dilution, read-out: MIC), 6 µg/mL (≈ 28.3 µM); in series [6] (setting [11]) it was 200 µg/mL (≈ 942 µM). In series [5] (less active than Resveratrol on all strains except Corynebacterium xerosis), the “selectivity of bactericidal activity, in words” value was “exerted selectively”. Also, the “average % of reduction in the unpleasantness of the odor (T18 h, T24 h)” value in series [7] (1 mg/ml of sweat) is listed as −33%; in series [7] (2 mg/ml of sweat), −40%. The “average % of reduction in the odor intensity (T18 h, T24 h)” value in series [7] (1 mg/ml of sweat) is recorded as −77%; in series [7] (2 mg/ml of sweat), −89%. The “deodorant efficacy (reduction in the intensity and unpleasantness of the odor), in words” value in series [7] is on record as “very large reduction”.

Turning to `Oc1ccc(C=Cc2ccccc2)cc1` [4-Hydroxystilbene, 4-hydroxystilbene], the “average % of reduction in the unpleasantness of the odor (T18 h, T24 h)” value is −3% in series [7] (1 mg/ml of sweat) and −10% in series [7] (2 mg/ml of sweat). Moreover, the “average % of reduction in the odor intensity (T18 h, T24 h)” value is listed as −18% in series [7] (1 mg/ml of sweat) and −21% in series [7] (2 mg/ml of sweat). The “deodorant efficacy (reduction in the intensity and unpleasantness of the odor), in words” value in series [7] is reported as “highly insufficient efficacy”.

For the molecule `Oc1cc(Cl)ccc1Oc1ccc(Cl)cc1Cl` [Triclosan, 2,4,4′-trichloro-2′-hydroxydiphenyl ether], the MIC in series [1] is 0.1 µg/mL (≈ 0.345 µM); in series [2] (Staphylococcus), 2.3 µg/mL (≈ 7.94 µM); in series [3], 18.1 µg/mL (≈ 62.5 µM); in series [4], above 144 µg/mL; in series [5], 2.3 µg/mL (≈ 7.94 µM); in series [6], 2.3 µg/mL (≈ 7.94 µM). The “average % of reduction in the unpleasantness of the odor (T18 h, T24 h)” value in series [7] (1 mg/ml of sweat) and in series [7] (2 mg/ml of sweat) was −26% in each case. Also, the “average % of reduction in the odor intensity (T18 h, T24 h)” value in series [7] (1 mg/ml of sweat) and in series [7] (2 mg/ml of sweat) was −64% throughout. In series [8], the “solubility in water, in words” value is listed as “insoluble”.
